Reference: ChEMBL document CHEMBL1201862, “PubChem BioAssay data set” (2004)
Activity calls are given as the source filed them.

What was measured:
[1] = biological target: T1, Replicative DNA helicase DnaB (Mycobacterium tuberculosis, UniProt P9WMR3); experiment: DnaB intein splicing inhibitors, dose response, biochemical, cell-free fluorescence (AID 449749); type: functional
T1 sequence (P9WMR3 whole entry): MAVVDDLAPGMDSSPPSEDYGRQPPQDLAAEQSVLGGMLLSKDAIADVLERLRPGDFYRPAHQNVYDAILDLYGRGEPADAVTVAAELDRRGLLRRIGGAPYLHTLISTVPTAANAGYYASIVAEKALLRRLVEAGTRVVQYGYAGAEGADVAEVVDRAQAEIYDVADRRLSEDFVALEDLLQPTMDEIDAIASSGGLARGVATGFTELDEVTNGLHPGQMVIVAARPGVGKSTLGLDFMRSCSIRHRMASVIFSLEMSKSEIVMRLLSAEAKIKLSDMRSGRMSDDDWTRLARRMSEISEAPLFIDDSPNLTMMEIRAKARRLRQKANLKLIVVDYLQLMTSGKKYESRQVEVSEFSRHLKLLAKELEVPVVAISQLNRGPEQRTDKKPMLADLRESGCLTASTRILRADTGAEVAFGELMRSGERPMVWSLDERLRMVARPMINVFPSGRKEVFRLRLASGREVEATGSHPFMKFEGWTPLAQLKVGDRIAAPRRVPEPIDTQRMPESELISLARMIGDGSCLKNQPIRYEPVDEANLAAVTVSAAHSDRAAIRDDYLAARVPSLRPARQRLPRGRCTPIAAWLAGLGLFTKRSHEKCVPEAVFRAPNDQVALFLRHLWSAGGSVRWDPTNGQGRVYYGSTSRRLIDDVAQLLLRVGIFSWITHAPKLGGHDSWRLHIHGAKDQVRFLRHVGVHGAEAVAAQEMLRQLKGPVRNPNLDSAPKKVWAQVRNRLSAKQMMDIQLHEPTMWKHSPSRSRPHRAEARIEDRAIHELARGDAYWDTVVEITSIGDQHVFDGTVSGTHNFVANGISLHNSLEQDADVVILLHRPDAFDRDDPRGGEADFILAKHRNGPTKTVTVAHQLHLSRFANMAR

Protein RecA = biological target: T2, Protein RecA (Mycobacterium tuberculosis, UniProt P9WHJ3); experiment: Fluorescence Cell-Free Homogeneous Dose Retest to Identify Inhibitors of RecA-Intein Splicing Activity. [Related pubchem assays (depositor defined):AID2097, AID2223, AID489010, AID492950]; type: functional
T2 sequence (P9WHJ3 whole entry): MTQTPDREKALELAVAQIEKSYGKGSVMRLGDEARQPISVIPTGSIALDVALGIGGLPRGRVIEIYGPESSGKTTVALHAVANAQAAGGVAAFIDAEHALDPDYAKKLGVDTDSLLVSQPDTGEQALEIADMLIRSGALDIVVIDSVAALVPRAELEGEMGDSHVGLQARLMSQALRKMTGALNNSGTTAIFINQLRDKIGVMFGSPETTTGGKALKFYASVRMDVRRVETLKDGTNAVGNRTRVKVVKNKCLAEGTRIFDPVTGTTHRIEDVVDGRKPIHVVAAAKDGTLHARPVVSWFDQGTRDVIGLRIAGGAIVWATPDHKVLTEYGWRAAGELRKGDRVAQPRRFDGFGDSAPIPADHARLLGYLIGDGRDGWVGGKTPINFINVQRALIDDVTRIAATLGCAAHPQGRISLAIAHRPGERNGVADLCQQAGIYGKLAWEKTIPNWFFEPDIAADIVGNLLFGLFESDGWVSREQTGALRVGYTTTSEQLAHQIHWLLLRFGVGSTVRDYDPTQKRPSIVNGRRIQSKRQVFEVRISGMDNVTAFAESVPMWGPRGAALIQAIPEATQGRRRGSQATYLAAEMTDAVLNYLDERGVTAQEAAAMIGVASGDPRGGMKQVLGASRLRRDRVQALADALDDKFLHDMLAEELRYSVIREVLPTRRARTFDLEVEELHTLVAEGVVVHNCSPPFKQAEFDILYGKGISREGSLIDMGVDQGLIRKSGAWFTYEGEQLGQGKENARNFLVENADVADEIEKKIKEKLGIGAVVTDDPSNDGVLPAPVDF

Cytochrome P450 1A2 = biological target: T3, Cytochrome P450 1A2 (Homo sapiens, UniProt P05177);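 note: PubChem cytochrome P450 panel assay, CYP1A2 panel member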
T3 sequence (P05177 whole entry): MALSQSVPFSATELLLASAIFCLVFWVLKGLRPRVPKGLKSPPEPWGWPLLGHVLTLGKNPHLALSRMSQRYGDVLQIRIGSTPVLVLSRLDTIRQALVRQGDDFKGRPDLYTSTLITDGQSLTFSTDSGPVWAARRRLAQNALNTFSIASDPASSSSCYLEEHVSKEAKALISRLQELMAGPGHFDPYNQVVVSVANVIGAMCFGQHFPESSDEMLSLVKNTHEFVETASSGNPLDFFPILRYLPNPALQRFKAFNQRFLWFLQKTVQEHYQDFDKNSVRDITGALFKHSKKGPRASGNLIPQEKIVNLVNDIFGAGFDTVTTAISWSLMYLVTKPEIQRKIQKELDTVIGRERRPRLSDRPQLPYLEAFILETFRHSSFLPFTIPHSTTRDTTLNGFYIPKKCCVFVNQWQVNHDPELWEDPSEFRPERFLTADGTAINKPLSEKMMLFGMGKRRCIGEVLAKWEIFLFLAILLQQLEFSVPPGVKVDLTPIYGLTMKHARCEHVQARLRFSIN

Cytochrome P450 2D6 = Cytochrome P450 2D6 (Homo sapiens, UniProt P10635);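 note: CYP2D6 member of a cytochrome P450 panel assay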
Cytochrome P450 2C19 = Cytochrome P450 2C19 (Homo sapiens, UniProt P33261); experiment: Cytochrome panel assay with activity outcomes. Panel member name: p450-cyp2c19 Compounds with AC50 equal or less than 10 uM are considered active; type: functional; details: read-out: AC50
Cytochrome P450 3A4 = Cytochrome P450 3A4 (Homo sapiens, UniProt P08684);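 note: CYP3A4 tested as one member of a cytochrome P450 panel screen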
Cytochrome P450 2C9 = Cytochrome P450 2C9 (Homo sapiens, UniProt P11712)
[2] = Luminescence Cell-Based Dose Response HTS to Identify Activators of Luciferase Translation or Activity in H4 […] Cells. [Related pubchem assays: 1829 (Project Summary), 1814 (Primary HTS)]; type: functional
H4 = experiment: Luminescence Cell-Based Dose Response HTS to Identify Activators of 5'UTR Stem-Loop Driven Prion Protein mRNA Translation in H4 Neuroglioblastoma Cells. [Related pubchem assays: 1829 (Project Summary), 1814 (Primary HTS)]; type: functional; details: Homo sapiens
[3] = test system: Streptococcus sp. 'group A'; experiment: Streptococcus pyogenes SK(-)GAS viability under kanamycin – luminescence, BacTiterGlo, confirmation, counter-screen for streptokinase expression inhibitor project, dose response (AID 1900); type: functional, organism-based
Streptococcus = experiment: GAS UMAA2166 growth inhibition – luminescence, BacTiterGlo, counter-screen for streptokinase expression inhibitor project, dose response (AID 1915); type: functional, organism-based;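 note: potency for reduction of bacterial viability or growth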
[4] = NIH-3T3 fibroblast cytotoxicity, dose response, cytotoxicity control, cell-based, fluorescence, Alamar Blue, secondary assay (AID 2327); type: functional;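 note: NIH-3T3 mouse fibroblasts cultured with fluconazole at 8 µg/mL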

Sequence of Cytochrome P450 3A4 (P08684 whole entry): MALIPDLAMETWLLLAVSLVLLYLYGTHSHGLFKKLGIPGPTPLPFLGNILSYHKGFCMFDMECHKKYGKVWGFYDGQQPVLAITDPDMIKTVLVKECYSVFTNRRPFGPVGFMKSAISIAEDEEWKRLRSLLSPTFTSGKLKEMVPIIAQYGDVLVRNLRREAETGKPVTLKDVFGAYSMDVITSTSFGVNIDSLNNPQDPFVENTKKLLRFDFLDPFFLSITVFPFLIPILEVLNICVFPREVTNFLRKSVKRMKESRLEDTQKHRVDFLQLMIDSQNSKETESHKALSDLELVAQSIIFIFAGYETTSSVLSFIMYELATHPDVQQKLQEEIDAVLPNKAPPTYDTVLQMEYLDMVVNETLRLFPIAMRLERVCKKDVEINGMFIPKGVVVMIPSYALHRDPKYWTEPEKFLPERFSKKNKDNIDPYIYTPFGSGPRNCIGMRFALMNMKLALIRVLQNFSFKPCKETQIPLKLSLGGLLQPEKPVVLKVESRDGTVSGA
Sequence of Cytochrome P450 2C9 (P11712 whole entry): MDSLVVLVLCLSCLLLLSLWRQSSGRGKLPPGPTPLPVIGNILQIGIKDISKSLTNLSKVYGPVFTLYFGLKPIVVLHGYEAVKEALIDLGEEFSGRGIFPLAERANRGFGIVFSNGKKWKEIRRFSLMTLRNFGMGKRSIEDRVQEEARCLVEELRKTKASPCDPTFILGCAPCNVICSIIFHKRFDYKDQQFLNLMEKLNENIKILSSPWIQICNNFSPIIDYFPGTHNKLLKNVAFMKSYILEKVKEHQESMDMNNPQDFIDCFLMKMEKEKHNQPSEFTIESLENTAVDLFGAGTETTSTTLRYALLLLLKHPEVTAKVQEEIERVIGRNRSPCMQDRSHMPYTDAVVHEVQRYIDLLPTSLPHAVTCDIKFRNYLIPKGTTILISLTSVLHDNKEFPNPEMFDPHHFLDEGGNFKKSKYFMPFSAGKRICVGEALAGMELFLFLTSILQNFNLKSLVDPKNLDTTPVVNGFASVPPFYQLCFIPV
Sequence of Cytochrome P450 2D6 (P10635 whole entry): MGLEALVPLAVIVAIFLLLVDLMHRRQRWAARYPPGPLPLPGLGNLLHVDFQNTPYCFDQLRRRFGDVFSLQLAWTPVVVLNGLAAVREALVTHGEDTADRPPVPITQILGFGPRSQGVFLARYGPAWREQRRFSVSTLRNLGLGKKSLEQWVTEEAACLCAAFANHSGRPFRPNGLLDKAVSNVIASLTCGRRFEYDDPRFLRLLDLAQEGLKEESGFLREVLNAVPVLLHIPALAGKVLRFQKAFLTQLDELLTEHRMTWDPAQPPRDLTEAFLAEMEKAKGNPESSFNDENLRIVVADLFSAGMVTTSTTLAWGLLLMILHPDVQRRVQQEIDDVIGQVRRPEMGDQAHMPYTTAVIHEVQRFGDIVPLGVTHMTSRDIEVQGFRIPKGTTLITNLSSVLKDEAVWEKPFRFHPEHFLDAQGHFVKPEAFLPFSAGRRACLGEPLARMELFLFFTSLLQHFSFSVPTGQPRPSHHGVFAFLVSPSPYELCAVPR
Sequence of Cytochrome P450 2C19 (P33261 whole entry): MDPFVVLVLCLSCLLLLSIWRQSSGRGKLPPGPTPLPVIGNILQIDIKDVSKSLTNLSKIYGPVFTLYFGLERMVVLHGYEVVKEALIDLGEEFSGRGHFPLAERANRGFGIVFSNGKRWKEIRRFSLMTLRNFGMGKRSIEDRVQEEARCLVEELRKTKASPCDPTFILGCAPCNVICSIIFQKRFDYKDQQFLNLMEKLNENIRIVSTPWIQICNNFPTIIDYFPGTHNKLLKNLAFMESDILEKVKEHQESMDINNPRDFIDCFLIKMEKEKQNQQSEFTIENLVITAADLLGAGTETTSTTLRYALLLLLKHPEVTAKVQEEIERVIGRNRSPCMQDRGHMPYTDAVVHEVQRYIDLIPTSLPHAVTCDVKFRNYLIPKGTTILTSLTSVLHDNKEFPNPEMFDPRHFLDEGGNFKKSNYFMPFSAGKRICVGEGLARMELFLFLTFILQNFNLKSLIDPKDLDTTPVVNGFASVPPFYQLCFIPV

O=C1CC/[N+](=C\c2ccccc2Cl)[N-]1
AC50 [1]: 7.23 µM (active) | EC50 (Protein RecA): 4.02 µM (active)

CCCCSc1nc(C)cc(N=C(S)Nc2ccc(OC)cc2)n1
AC50 (Cytochrome P450 1A2): 4.47 µM (inconclusive)

CCCC(=O)Nc1c2c(nn1-c1ccc(C)cc1C)CSC2
AC50 (Cytochrome P450 2D6): 28.2 µM (inconclusive) | AC50 (Cytochrome P450 1A2): 12.6 µM (inconclusive)

O=C(c1cnc(N2CCN(c3ncccn3)CC2)c2ccccc12)N1CCN(c2ccccn2)CC1
AC50 (Cytochrome P450 1A2): 0.0251 µM (inconclusive)

O=S(=O)(c1ccccc1)N1CCC2(CC1)CN(c1ccccn1)C2
AC50 (Cytochrome P450 2C19): 10 µM (inconclusive) | AC50 (Cytochrome P450 2D6): 20 µM (inconclusive) | AC50 (Cytochrome P450 3A4): 12.6 µM (inconclusive)

c1ccc(N2CCC3(CCNCC3)CC2)nc1
AC50 (Cytochrome P450 2C19): 25.1 µM (inconclusive) | AC50 (Cytochrome P450 3A4): 25.1 µM (inconclusive) | AC50 (Cytochrome P450 2C9): 31.6 µM (inconclusive)

COC(=O)[C@H](Cc1ccccc1)NC(=O)N1CCN(Cc2ccccc2)CC1
AC50 (Cytochrome P450 3A4): 14.1 µM (inconclusive) | AC50 (Cytochrome P450 2C9): 0.01 µM (inconclusive)

Cc1cccc(Nc2ccccc2C(=O)OCC(=O)NCc2ccco2)c1C
AC50 (Cytochrome P450 2C9): 11.2 µM (inconclusive)

C[C@@H](C(=O)Nc1ccc2ccccc2c1)[C@@H]1C[C@@]1(C)[C@@H](NC(=O)Oc1ccc(F)cc1)c1ccccc1
AC50 (Cytochrome P450 2C9): 0.251 µM (inconclusive)

CCC(C)NC(=O)CCS(=O)(=O)c1ccc(Br)s1 (configuration not stated)
AC50 (Cytochrome P450 2D6): 28.2 µM (inconclusive) | AC50 (Cytochrome P450 2C9): 12.6 µM (inconclusive)

CCc1ccc(OCC(=O)NC(=S)Nc2ccc(C)cc2C)c(Br)c1
AC50 (Cytochrome P450 1A2): 4.47 µM (inconclusive) | AC50 (Cytochrome P450 3A4): 31.6 µM (inconclusive) | AC50 (Cytochrome P450 2C9): 0.631 µM (inconclusive)

FC(F)(F)c1cc(-c2ccco2)nc(NCc2cccs2)n1
AC50 (Cytochrome P450 2C19): 1.26 µM (inconclusive) | AC50 (Cytochrome P450 2D6): 20 µM (inconclusive)

Cc1ccc(-n2c(C)c(C)c3c(NCCCO)ncnc32)cc1
EC50 [2]: 119 µM (active) | EC50 (H4): > 120 µM (not active)

COc1ccc(C2=Nc3c(c(=O)n(C)c(=O)n3C)C(C(F)(F)F)(C(F)(F)F)N2)cc1
AC50 (Cytochrome P450 1A2): 11.2 µM (inconclusive) | AC50 (Cytochrome P450 3A4): 14.1 µM (inconclusive)

O=C(NCCOc1nc(N2CCOCC2)nc(N2CCOCC2)n1)Nc1ccccc1
AC50 (Cytochrome P450 3A4): 22.4 µM (inconclusive) | AC50 (Cytochrome P450 2C9): 15.8 µM (inconclusive)

CC(=O)NC1N=C(C)N(c2ccccc2)C1=O (configuration not stated)
AC50 [1]: 4.66 µM (active) | EC50 (Protein RecA): 10.7 µM (active)

COc1ccc(C2C(C#N)=C(N)N(Nc3ccccc3)C3=C2C(=O)CC(C)(C)C3)cc1C (configuration not stated)
AC50 (Cytochrome P450 1A2): 39.8 µM (inconclusive)

COC(=O)c1cc2c(ccn2-c2ccc(F)cc2)n1C(C)C
AC50 (Cytochrome P450 3A4): 25.1 µM (inconclusive) | AC50 (Cytochrome P450 2C9): 22.4 µM (inconclusive)

c1ccc(Nc2ncnc3ccc(-c4ccc5c(c4)OCO5)cc23)cc1
AC50 (Cytochrome P450 2C9): 1.58 µM (inconclusive)

CN(C)c1ncc2nc(-c3ccc(F)cc3)c(=O)n(CCC#N)c2n1
AC50 (Cytochrome P450 2D6): 0.501 µM (inconclusive) | AC50 (Cytochrome P450 1A2): 1.26 µM (inconclusive)

Cc1ccc(C)c(Nc2nc3nonc3nc2N2CCOCC2)c1
AC50 (Cytochrome P450 2C9): 0.355 µM (inconclusive)

CN1CCN(c2ncnc3ccc(-c4cccc(NS(C)(=O)=O)c4)cc23)CC1
AC50 (Cytochrome P450 1A2): 25.1 µM (inconclusive) | AC50 (Cytochrome P450 3A4): 12.6 µM (inconclusive)

CN(C)C(=S)N=Nc1[nH]c2ccccc2c1O
AC50 [1]: 10.7 µM (active) | EC50 (Protein RecA): 6.07 µM (active)

COc1cccc(-c2[nH]nc3c2C(c2ccsc2)C(C#N)=C(N)O3)c1 (configuration not stated)
AC50 [1]: 2 µM (active) | EC50 (Protein RecA): 0.52 µM (active)

COc1cccc(NC(=O)NCCC2=CCCCC2)c1
EC50 [2]: 51 µM (active) | EC50 (H4): 0.324 µM (active)

O=C(CSc1nnc(Cc2ccccc2)o1)Nc1cccc(F)c1
AC50 [1]: 71.3 µM (active) | EC50 (Protein RecA): 86.1 µM (active)

O=C(NCCCN1CCCCCC1)[C@@H](c1ccccc1)C1CCCCC1
AC50 (Cytochrome P450 1A2): 31.6 µM (inconclusive)

Cc1nn2c(NCC(C)C)c3c(nc2c1-c1ccccc1)CCC3
AC50 (Cytochrome P450 3A4): 10 µM (inconclusive) | AC50 (Cytochrome P450 2C9): 0.708 µM (inconclusive)

CS(=O)(=O)C1=NSC2=NC(=O)/C(=C\c3ccc(OC(=O)c4ccco4)cc3)C(=N)N21
AC50 [1]: > 120 µM (inactive) | EC50 (Protein RecA): 16 µM (active)

CCOc1ccc(N2CC(C(=O)NCc3cccc(C)c3)CC2=O)cc1 (configuration not stated)
AC50 (Cytochrome P450 1A2): 14.1 µM (inconclusive)

CCCCNC(=O)C(=O)c1ccccc1NC(C)=O
AC50 (Cytochrome P450 2C19): 22.4 µM (inconclusive) | AC50 (Cytochrome P450 1A2): 39.8 µM (inconclusive)

CC(C)On1c(SC(C)C)nc2ccccc2c1=O
AC50 (Cytochrome P450 2C19): 28.2 µM (inconclusive) | AC50 (Cytochrome P450 2C9): 31.6 µM (inconclusive)

COc1ccc(S(=O)(=O)N(CC(=O)N2CCCC2)Cc2ccccc2)cc1
AC50 (Cytochrome P450 2C9): 1 µM (inconclusive)

CCOC(=O)CSc1nnc(Cc2ccccc2)n1-c1cccc(Cl)c1
AC50 (Cytochrome P450 2D6): 0.0891 µM (inconclusive) | AC50 (Cytochrome P450 1A2): 25.1 µM (inconclusive) | AC50 (Cytochrome P450 2C9): 39.8 µM (inconclusive)

Cc1cc(C)c2c(-n3cccc3)[nH]nc2n1
AC50 (Cytochrome P450 2C9): 6.31 µM (inconclusive)

O=C(CN(c1cccc(Br)c1)S(=O)(=O)c1ccccc1)N/N=C/c1cc([N+](=O)[O-])ccc1O
EC50 [3]: 0.364 µM (active) | EC50 (Streptococcus): 0.587 µM (active) | AC50 [1]: > 380 µM (inactive) | EC50 (Protein RecA): > 380 µM (inactive)

O=[N+]([O-])c1ccc(/C=N/Nc2cc(Cl)nc(-c3ccccc3)n2)cc1
AC50 (Cytochrome P450 2C9): 0.00562 µM (inconclusive)

C/C(=N\Nc1ccc(Cl)cc1)c1c(O)cc(C)oc1=O
EC50 [4]: 29.4 µM (active)

c1ccc(C[C@@H](c2ccccc2)N2CCCCC2)cc1
AC50 (Cytochrome P450 2C19): 7.94 µM (inconclusive) | AC50 (Cytochrome P450 1A2): 15.8 µM (inconclusive) | AC50 (Cytochrome P450 3A4): 31.6 µM (inconclusive)
